PMC7101356, “Cross-site and cross-platform variability of automated patch clamp assessments of drug effects on human cardiac currents in recombinant cells” (Scientific Reports, 2020)
pIC50: −log10 of the molar value.

Columns and labels:
late hNav1.5 = biological target: T1, late hNav1.5 (Homo sapiens, UniProt Q14524); experiment: Automated patch clamp, late hNav1.5 current block (ATX-II activated); assay type: cell-based
T1 construct: expressed in transfected cells; host or cells: HEK293 or CHO, depending on site

peak hNav1.5 = biological target: T2, peak hNav1.5 (Homo sapiens, UniProt Q14524); experiment: Automated patch clamp, peak hNav1.5 current block; assay type: cell-based
T2 construct: expressed in transfected cells; host or cells: HEK293 or CHO, depending on site
Experimental: Peak current was measured during the depolarizing step to −15 mV. Leak current was measured after applying a saturating concentration of a blocker such as lidocaine (2 mM) at the end of each experiment to completely block hNav1.5 current.
Concentration-response relationships for each test article were independently investigated, i.e., each cell received only one test article, typically evaluating multiple concentrations in a cumulative fashion (lowest to highest concentrations). However, some platforms tested only one concentration per well. Each concentration response was based on a minimum of four concentrations, with a minimum of three wells used for each concentration. In cases of high variability, more cells per concentration were recorded. Prior to drug addition, cells received an addition of vehicle to measure non-test article-related effects such as addition artifacts. At the end of the experiment, a supramaximal concentration of a known inhibitory reference compound was applied to assess leak current and appropriate responsiveness of the test system.
The steady state current at each concentration was used to determine the concentration-response relationships. Mean concentration-response data were fitted to a standard sigmoidal four-parameter logistic equation (GraphPad Prism 7; GraphPad Inc., La Jolla, CA) of the form: Y=Bottom+(Top−Bottom)/(1+10^∧(LogIC50−X)∗HillSlope) where Y is the current inhibition (in % of pre-drug control), X is the logarithm of drug concentration, and IC50 is the drug concentration producing half-maximal current inhibition. Curve fitting was performed using the following constraints: Top = 100%, Bottom = 0%, Hill Slope <2. No curve fitting was performed in cases with an obvious lack of a concentration-dependent current inhibition and/or small effect size (approximately ≤20%).

hERG [1] = biological target: T3, hERG (Homo sapiens, UniProt Q12809); experiment: in vitro; conditions: hERG K+ current inhibition, Mean
hCav1.2 = hCav1.2 (Homo sapiens, UniProt Q13936); experiment: Automated patch clamp, hCav1.2 current block
[2] = based on CiPA evaluations; cited from earlier work
hERG [3] = biological target: T3, hERG; parameters: expressed in transfected cells; host or cells: HEK293 or CHO, depending on site (site s06, Milnes protocol: HEK293); conditions: physiologic temperatures; cited from earlier work
[4] = site_platform s06_p4, 1.00E-09 mol/L
[5] = site_platform s06_p4, 3.00E-07 mol/L
[6] = site_platform s07_p6, 1.00E-09 mol/L
[7] = site_platform s07_p6, 3.00E-07 mol/L
[8] = site_platform s13_p2, 1.00E-09 mol/L
[9] = site_platform s14_p1, 3.00E-07 mol/L

T3 sequence (Q12809 whole entry): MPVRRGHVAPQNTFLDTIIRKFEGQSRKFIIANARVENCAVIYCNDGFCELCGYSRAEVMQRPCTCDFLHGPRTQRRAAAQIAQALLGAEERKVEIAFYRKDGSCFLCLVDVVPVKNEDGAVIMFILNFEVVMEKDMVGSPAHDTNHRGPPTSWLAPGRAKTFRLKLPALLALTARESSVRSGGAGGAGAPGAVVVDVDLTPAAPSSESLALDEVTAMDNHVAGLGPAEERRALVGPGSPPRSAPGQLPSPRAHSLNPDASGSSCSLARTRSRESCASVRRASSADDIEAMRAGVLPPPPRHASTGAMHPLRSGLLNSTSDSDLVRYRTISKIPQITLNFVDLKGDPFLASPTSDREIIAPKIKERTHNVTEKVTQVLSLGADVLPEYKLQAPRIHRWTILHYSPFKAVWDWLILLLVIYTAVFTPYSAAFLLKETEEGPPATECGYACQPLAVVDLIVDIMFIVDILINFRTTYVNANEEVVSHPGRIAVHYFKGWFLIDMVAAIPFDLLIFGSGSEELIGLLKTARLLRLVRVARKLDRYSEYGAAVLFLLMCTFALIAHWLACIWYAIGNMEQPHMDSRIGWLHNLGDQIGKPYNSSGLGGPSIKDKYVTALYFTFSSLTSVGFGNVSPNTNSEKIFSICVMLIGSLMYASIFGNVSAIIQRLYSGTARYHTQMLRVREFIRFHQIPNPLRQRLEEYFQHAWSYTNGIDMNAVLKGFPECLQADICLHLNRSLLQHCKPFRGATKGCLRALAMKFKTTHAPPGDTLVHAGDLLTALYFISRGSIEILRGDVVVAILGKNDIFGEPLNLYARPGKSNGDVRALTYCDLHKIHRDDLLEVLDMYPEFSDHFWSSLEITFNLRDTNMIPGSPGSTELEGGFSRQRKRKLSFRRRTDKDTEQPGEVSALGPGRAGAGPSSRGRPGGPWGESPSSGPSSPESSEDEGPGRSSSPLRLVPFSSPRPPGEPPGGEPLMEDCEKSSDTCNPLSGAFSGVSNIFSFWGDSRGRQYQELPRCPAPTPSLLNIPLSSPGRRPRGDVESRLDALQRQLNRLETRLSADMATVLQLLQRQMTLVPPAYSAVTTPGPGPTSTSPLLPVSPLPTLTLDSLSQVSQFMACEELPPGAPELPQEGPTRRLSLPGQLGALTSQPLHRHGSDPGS
T2 sequence (Q14524 whole entry): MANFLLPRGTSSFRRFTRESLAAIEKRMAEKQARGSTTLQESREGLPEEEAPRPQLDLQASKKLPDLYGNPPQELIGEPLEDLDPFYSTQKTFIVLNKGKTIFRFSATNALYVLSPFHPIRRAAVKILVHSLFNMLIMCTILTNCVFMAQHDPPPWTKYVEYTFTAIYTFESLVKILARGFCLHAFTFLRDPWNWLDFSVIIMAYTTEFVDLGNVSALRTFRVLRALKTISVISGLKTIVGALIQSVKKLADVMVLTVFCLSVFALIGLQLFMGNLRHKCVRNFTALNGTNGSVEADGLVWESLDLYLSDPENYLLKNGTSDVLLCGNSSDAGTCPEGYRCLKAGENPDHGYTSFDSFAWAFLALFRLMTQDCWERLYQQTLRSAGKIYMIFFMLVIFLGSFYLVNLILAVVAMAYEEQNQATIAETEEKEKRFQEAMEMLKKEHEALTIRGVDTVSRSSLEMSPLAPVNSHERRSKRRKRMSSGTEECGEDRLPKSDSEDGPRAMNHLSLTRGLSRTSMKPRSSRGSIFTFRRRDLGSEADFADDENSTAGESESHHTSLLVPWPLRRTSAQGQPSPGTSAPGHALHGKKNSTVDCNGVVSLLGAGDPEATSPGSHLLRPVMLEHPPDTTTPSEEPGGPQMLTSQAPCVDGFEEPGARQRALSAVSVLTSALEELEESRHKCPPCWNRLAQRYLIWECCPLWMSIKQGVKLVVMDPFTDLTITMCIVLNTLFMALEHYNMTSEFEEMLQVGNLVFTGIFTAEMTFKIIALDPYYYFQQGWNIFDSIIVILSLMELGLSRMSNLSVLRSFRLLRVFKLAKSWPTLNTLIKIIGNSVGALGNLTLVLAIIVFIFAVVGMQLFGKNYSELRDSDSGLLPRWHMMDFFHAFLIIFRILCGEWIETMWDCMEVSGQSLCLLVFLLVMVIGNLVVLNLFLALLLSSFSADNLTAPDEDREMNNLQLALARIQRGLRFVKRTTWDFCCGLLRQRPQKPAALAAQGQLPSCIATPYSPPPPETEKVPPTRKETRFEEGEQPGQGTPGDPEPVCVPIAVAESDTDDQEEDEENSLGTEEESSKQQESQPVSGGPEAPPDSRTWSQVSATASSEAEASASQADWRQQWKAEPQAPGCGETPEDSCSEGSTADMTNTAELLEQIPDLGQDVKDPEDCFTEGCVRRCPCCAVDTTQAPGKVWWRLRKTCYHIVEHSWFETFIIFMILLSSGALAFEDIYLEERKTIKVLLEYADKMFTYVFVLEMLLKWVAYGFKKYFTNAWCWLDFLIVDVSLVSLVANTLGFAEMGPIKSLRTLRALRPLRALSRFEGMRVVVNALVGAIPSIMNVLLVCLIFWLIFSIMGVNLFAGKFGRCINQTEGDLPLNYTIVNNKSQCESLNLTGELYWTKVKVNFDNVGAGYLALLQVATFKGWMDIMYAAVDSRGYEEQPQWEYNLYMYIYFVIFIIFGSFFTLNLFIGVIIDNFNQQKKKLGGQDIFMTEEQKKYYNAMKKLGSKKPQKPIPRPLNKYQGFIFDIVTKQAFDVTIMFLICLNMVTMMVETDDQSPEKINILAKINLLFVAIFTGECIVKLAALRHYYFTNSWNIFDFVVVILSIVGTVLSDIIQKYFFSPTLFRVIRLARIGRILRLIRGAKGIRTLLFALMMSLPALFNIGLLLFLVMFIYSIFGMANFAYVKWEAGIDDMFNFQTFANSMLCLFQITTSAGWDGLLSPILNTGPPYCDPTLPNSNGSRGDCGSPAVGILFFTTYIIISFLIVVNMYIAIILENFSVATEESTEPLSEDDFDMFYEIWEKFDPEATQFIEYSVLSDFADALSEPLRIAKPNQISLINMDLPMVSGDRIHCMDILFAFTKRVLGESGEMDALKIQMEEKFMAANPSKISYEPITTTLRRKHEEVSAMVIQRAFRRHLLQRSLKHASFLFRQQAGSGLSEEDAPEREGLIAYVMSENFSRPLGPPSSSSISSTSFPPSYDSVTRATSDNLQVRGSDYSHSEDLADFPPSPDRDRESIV

COc1cc(N)c(Cl)cc1C(=O)NC1CCN(CCCOc2ccc(F)cc2)CC1OC (stereo not drawn) [cis, cisapride]
log IC50, late hNav1.5 inhibition (late hNav1.5; site_platform s06_p4): no inh. | Late hNav1.5 Na+ current inhibition, Mean (late hNav1.5; [4]): -0.7% | Late hNav1.5 Na+ current inhibition, Mean (late hNav1.5; [5]): 31.8% | log IC50, late hNav1.5 inhibition (late hNav1.5; site_platform s07_p6): no inh. | Late hNav1.5 Na+ current inhibition, Mean (late hNav1.5; [6]): 4.3% | Late hNav1.5 Na+ current inhibition, Mean (late hNav1.5; [7]): -17.0% | log IC50, late hNav1.5 inhibition (late hNav1.5; site_platform s13_p2): no inh. | Late hNav1.5 Na+ current inhibition, Mean (late hNav1.5; [8]): -16.7% | Late hNav1.5 Na+ current inhibition, Mean (late hNav1.5; site_platform s13_p2, 3.00E-07 mol/L): 7.2% | log IC50, late hNav1.5 inhibition (late hNav1.5; site_platform s14_p1): no inh. | Late hNav1.5 Na+ current inhibition, Mean (late hNav1.5; site_platform s14_p1, 1.00E-09 mol/L): -6.9% | Late hNav1.5 Na+ current inhibition, Mean (late hNav1.5; [9]): -6.3% | peak hNav1.5 Na+ current inhibition (result in words) (peak hNav1.5; no inhibition = no obvious concentration-dependent current block and/or no curve fitting performed, all sites): no inhibition | log IC50, peak hNav1.5 Na+ current inhibition (peak hNav1.5; site_platform s01_p1): no inh. | Peak hNav1.5 Na+ current inhibition, Mean (peak hNav1.5; site_platform s01_p1, 1.00E-09 mol/L): 55.1% | Peak hNav1.5 Na+ current inhibition, Mean (peak hNav1.5; site_platform s01_p1, 3.00E-07 mol/L): 41.7% | log IC50, peak hNav1.5 Na+ current inhibition (peak hNav1.5; site_platform s02_p2): no inh. | Peak hNav1.5 Na+ current inhibition, Mean (peak hNav1.5; site_platform s02_p2, 1.00E-09 mol/L): 0.1% | Peak hNav1.5 Na+ current inhibition, Mean (peak hNav1.5; site_platform s02_p2, 3.00E-07 mol/L): 4.3% | log IC50, peak hNav1.5 Na+ current inhibition (peak hNav1.5; site_platform s04_p3): no inh. | Peak hNav1.5 Na+ current inhibition, Mean (peak hNav1.5; site_platform s04_p3, 1.00E-09 mol/L): 1.4% | Peak hNav1.5 Na+ current inhibition, Mean (peak hNav1.5; site_platform s04_p3, 3.00E-07 mol/L): 9.8% | log IC50, peak hNav1.5 Na+ current inhibition (peak hNav1.5; site_platform s06_p4): no inh. | Peak hNav1.5 Na+ current inhibition, Mean (peak hNav1.5; [4]): -1.5% | Peak hNav1.5 Na+ current inhibition, Mean (peak hNav1.5; [5]): 6.3% | log IC50, peak hNav1.5 Na+ current inhibition (peak hNav1.5; site_platform s07_p6): no inh. | Peak hNav1.5 Na+ current inhibition, Mean (peak hNav1.5; [6]): 3.2% | Peak hNav1.5 Na+ current inhibition, Mean (peak hNav1.5; [7]): 12.5% | log IC50, peak hNav1.5 inhibition (peak hNav1.5; site_platform s10_p3): no inh. | Peak hNav1.5 Na+ current inhibition, Mean (peak hNav1.5; site_platform s10_p3, 1.00E-09 mol/L): -1.1% | Peak hNav1.5 Na+ current inhibition, Mean (peak hNav1.5; site_platform s10_p3, 3.00E-07 mol/L): 11.3% | log IC50, peak hNav1.5 inhibition (peak hNav1.5; site_platform s11_p1): no inh. | Peak hNav1.5 Na+ current inhibition, Mean (peak hNav1.5; site_platform s11_p1, 1.00E-09 mol/L): 8.6% | Peak hNav1.5 Na+ current inhibition, Mean (peak hNav1.5; site_platform s11_p1, 3.00E-07 mol/L): 10.0% | log IC50, peak hNav1.5 inhibition (peak hNav1.5; site_platform s12_p2): no inh. | Peak hNav1.5 Na+ current inhibition, Mean (peak hNav1.5; site_platform s12_p2, 1.00E-09 mol/L): -0.2% | Peak hNav1.5 Na+ current inhibition, Mean (peak hNav1.5; site_platform s12_p2, 3.00E-07 mol/L): 6.8% | log IC50, peak hNav1.5 inhibition (peak hNav1.5; site_platform s13_p2): no inh. | Peak hNav1.5 Na+ current inhibition, Mean (peak hNav1.5; [8]): -1.8% | log IC50, peak hNav1.5 inhibition (peak hNav1.5; site_platform s14_p1): no inh. | Peak hNav1.5 Na+ current inhibition, Mean (peak hNav1.5; [9]): -0.4% | log IC50, peak hNav1.5 inhibition (peak hNav1.5; site_platform s15_p1): no inh. | Peak hNav1.5 Na+ current inhibition, Mean (peak hNav1.5; site_platform s15_p1, 1.00E-09 mol/L): 10.3% | Peak hNav1.5 Na+ current inhibition, Mean (peak hNav1.5; site_platform s15_p1, 3.00E-07 mol/L): 21.4% | log IC50, peak hNav1.5 inhibition (peak hNav1.5; site_platform s16_p3): no inh. | Peak hNav1.5 Na+ current inhibition, Mean (peak hNav1.5; site_platform s16_p3, 1.00E-09 mol/L): 3.1% | Peak hNav1.5 Na+ current inhibition, Mean (peak hNav1.5; site_platform s16_p3, 3.00E-07 mol/L): 13.4% | log IC50, peak hNav1.5 inhibition (peak hNav1.5; site_platform s17_p1): no inh. | Peak hNav1.5 Na+ current inhibition, Mean (peak hNav1.5; site_platform s17_p1, 3.00E-07 mol/L): 1.3% | log IC50, peak hNav1.5 inhibition (peak hNav1.5; site_platform s18_p1): no inh. | Peak hNav1.5 Na+ current inhibition, Mean (peak hNav1.5; site_platform s18_p1, 1.00E-09 mol/L): -22.5% | Peak hNav1.5 Na+ current inhibition, Mean (peak hNav1.5; site_platform s18_p1, 3.00E-07 mol/L): 1.0% | log IC50, peak hNav1.5 inhibition (peak hNav1.5; site_platform s19_p3): no inh. | Peak hNav1.5 Na+ current inhibition, Mean (peak hNav1.5; site_platform s19_p3, 1.00E-09 mol/L): 6.7% | Peak hNav1.5 Na+ current inhibition, Mean (peak hNav1.5; site_platform s19_p3, 3.00E-07 mol/L): 20.0% | inhibition at 4 min, 1e-09 mol/L (hERG [1]): 7.2% | inhibition at 4 min, 3e-07 mol/L (hERG [1]): 68.5% | inhibition at 7 min, 1e-09 mol/L (hERG [1]): 12% | pIC50 (hCav1.2; log IC50, half-maximal inhibitory concentration, site s16_p3): 6.35 | log IC50, half-maximal inhibitory concentration (hCav1.2; site s01_p1): no inh. | Peak hCav1.2 Ca2+ current inhibition, Mean (hCav1.2; site s01_p1, 1.00E-09 mol/L): 7.4% | Peak hCav1.2 Ca2+ current inhibition, Mean (hCav1.2; site s01_p1, 3.00E-07 mol/L): 8.1% | log IC50, half-maximal inhibitory concentration (hCav1.2; site s02_p2, corrected for rundown): no inh. | Peak hCav1.2 Ca2+ current inhibition, Mean (hCav1.2; site s02_p2, corrected for rundown, 1.00E-09 mol/L): -5.7% | Peak hCav1.2 Ca2+ current inhibition, Mean (hCav1.2; site s02_p2, corrected for rundown, 3.00E-07 mol/L): 14.5% | log IC50, half-maximal inhibitory concentration (hCav1.2; site s06_p4): no inh. | Peak hCav1.2 Ca2+ current inhibition, Mean (hCav1.2; site s06_p4, 1.00E-09 mol/L): -8.1% | Peak hCav1.2 Ca2+ current inhibition, Mean (hCav1.2; site s06_p4, 3.00E-07 mol/L): -6.0% | log IC50, half-maximal inhibitory concentration (hCav1.2; site s11_p1): no inh. | Peak hCav1.2 Ca2+ current inhibition, Mean (hCav1.2; site s11_p1, 1.00E-09 mol/L): 7.8% | Peak hCav1.2 Ca2+ current inhibition, Mean (hCav1.2; site s11_p1, 3.00E-07 mol/L): 10.4% | log IC50, half-maximal inhibitory concentration (hCav1.2; site s14_p1): no inh. | Peak hCav1.2 Ca2+ current inhibition, Mean (hCav1.2; site s14_p1, 1.00E-09 mol/L): -10.3% | Peak hCav1.2 Ca2+ current inhibition, Mean (hCav1.2; site s14_p1, 3.00E-07 mol/L): -19.9% | nH, Hill slope (hCav1.2; site s16_p3): 0.24 | Peak hCav1.2 Ca2+ current inhibition, Mean (hCav1.2; site s16_p3, 1.00E-09 mol/L): 20.1% | Peak hCav1.2 Ca2+ current inhibition, Mean (hCav1.2; site s16_p3, 3.00E-07 mol/L): 49.1% | log IC50, half-maximal inhibitory concentration (hCav1.2; site s18_p1): no inh. | Peak hCav1.2 Ca2+ current inhibition, Mean (hCav1.2; site s18_p1, 1.00E-09 mol/L): 2.8% | Peak hCav1.2 Ca2+ current inhibition, Mean (hCav1.2; site s18_p1, 3.00E-07 mol/L): -16.5% | TdP Risk Category [2]: Intermediate

O=c1[nH]c2ccccc2n1C1CCN(CCCC(c2ccc(F)cc2)c2ccc(F)cc2)CC1 [pimozide]
difference of hERG IC50 between two manual patch clamp laboratories (hERG [3]): 44 fold
